Experimental data from patent US6737383B1, “Herbicidal oxadiazolidines” (priority 1999, dated 2004).

Columns and labels:
crabgrass = test: Test B pre/postemergence crabgrass; assay type: in vivo, Digitaria sanguinalis
How it was run: (§1)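 Response is a visual 0-to-10 score relative to untreated plants, where 0 means no effect and 10 means complete control, taken twelve to sixteen days after application. Treatments went onto soil at planting and onto foliage of 1- to 4-leaf plants, using a surfactant-containing non-phytotoxic solvent.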

bedstraw = test: Test B pre/postemergence bedstraw; assay type: in vivo, Galium aparine
How it was run: as §1

rape = test: Test B pre/postemergence rape; assay type: in vivo, Brassica napus
How it was run: as §1

wild oat = test: Test B pre/postemergence wild oat; assay type: in vivo, Avena fatua
How it was run: as §1

giant foxtail = test: Test B pre/postemergence giant foxtail; assay type: in vivo, Setaria faberii
How it was run: as §1

cocklebur = test: Test B pre/postemergence cocklebur; assay type: in vivo, Xanthium strumarium
How it was run: as §1

pigweed = test: Test B pre/postemergence pigweed; assay type: in vivo, Amaranthus retroflexus
How it was run: as §1

corn = test: Test B pre/postemergence corn; assay type: in vivo, Zea mays
How it was run: as §1

purple nutsedge = test: Test B pre/postemergence purple nutsedge; assay type: in vivo, Cyperus rotundus
How it was run: as §1

blackgrass = test: Test B pre/postemergence blackgrass; assay type: in vivo, Alopecurus myosuroides
How it was run: as §1

wheat = test: Test B pre/postemergence wheat; assay type: in vivo, Triticum aestivum
How it was run: as §1

soybean = test: Test B pre/postemergence soybean; assay type: in vivo, Glycine max
How it was run: as §1

sugar beet = test: Test B pre/postemergence sugar beet; assay type: in vivo, Beta vulgaris
How it was run: as §1

morningglory = test: Test B pre/postemergence morningglory; assay type: in vivo, Ipomoea hederacea
How it was run: as §1

velvetleaf = test: Test B pre/postemergence velvetleaf; assay type: in vivo, Abutilon theophrasti
How it was run: as §1

surinam grass = test: Test B pre/postemergence surinam grass; assay type: in vivo, Brachiaria decumbens
How it was run: as §1

[1] = Postemergence, Rate 62 g/ha, scale of 0 to 10, 0 is no effect, 10 is complete control
[2] = Postemergence, Rate 125 g/ha, scale 0 to 10, 0 is no effect, 10 is complete control
[3] = Postemergence, Rate 250 g/ha, scale 0 to 10
[4] = Postemergence, Rate 500 g/ha, scale 0 to 10, 0 is no effect, 10 is complete control
[5] = Preemergence, Rate 62 g/ha, scale of 0 to 10 where 0 is no effect and 10 is complete control
[6] = Preemergence, Rate 125 g/ha, scale 0 to 10, 0 is no effect, 10 is complete control
[7] = Preemergence, Rate 500 g/ha, scale of 0 to 10 where 0 is no effect and 10 is complete control
[8] = Preemergence, Rate 250 g/ha, scale 0 to 10, 0 is no effect, 10 is complete control
[9] = Preemergence, Rate 500 g/ha, scale 0 to 10, 0 is no effect, 10 is complete control

CC(C)N(C(=O)n1oc(=O)n(CC2OCCO2)c1=O)c1ccc(F)cc1F [Compound 501]
6: Plant response rating, Corn (corn; [4]) | Blackgrass plant response rating (blackgrass; [2]) | Blackgrass plant response rating (blackgrass; [3]) | B. signalgrass plant response rating (surinam grass; [2])
4: Redroot pigweed plant response rating (pigweed; [2]) | Corn plant response rating (corn; [3]) | Plant response rating, Wheat (wheat; [5]) | Wheat plant response rating (wheat; [6]) | Soybean plant response rating (soybean; [1]) | Plant response rating, Morningglory (morningglory; [4])
10: Bedstraw plant response rating (bedstraw; [8]) | Rape plant response rating (rape; [7]) | Wild oats plant response rating (wild oat; [7]) | Giant foxtail plant response rating (giant foxtail; [6]) | Giant foxtail plant response rating (giant foxtail; [7]) | Redroot pigweed plant response rating (pigweed; [6]) | Redroot pigweed plant response rating (pigweed; [7]) | B. signalgrass plant response rating (surinam grass; [9])
3: Plant response rating, Wild oats (wild oat; [4]) | Cocklebur plant response rating (cocklebur; [7]) | Nutsedge plant response rating (purple nutsedge; [6]) | Blackgrass plant response rating (blackgrass; [1]) | Plant response rating, Wheat (wheat; [4]) | Soybean plant response rating (soybean; [2]) | Sugarbeets plant response rating (sugar beet; [6]) | Morningglory plant response rating (morningglory; [2]) | Plant response rating, Velvetleaf (velvetleaf; [4])
9: Crabgrass plant response rating (crabgrass; [3]) | Crabgrass plant response rating (crabgrass; [6]) | Crabgrass plant response rating (crabgrass; [7]) | Plant response rating, Bedstraw (bedstraw; [4]) | Bedstraw plant response rating (bedstraw; [6]) | Bedstraw plant response rating (bedstraw; [9]) | Plant response rating, Giant foxtail (giant foxtail; [5]) | Plant response rating, Redroot pigweed (pigweed; [5]) | Nutsedge plant response rating (purple nutsedge; [7]) | Blackgrass plant response rating (blackgrass; [8]) | Blackgrass plant response rating (blackgrass; [7]) | B. signalgrass plant response rating (surinam grass; [6]) | B. signalgrass plant response rating (surinam grass; [8])
8: Crabgrass plant response rating (crabgrass; [2]) | Plant response rating, Crabgrass (crabgrass; [4]) | Plant response rating, Crabgrass (crabgrass; [5]) | Giant foxtail plant response rating (giant foxtail; [1]) | Giant foxtail plant response rating (giant foxtail; [2]) | Plant response rating, Giant foxtail (giant foxtail; [4]) | Wheat plant response rating (wheat; [7]) | Soybean plant response rating (soybean; [7]) | Plant response rating, Sugarbeets (sugar beet; [4]) | Sugarbeets plant response rating (sugar beet; [7]) | Plant response rating, B. signalgrass (surinam grass; [5])
0: Plant response rating, Rape (rape; [5]) | Rape plant response rating (rape; [6]) | Wild oats plant response rating (wild oat; [1]) | Wild oats plant response rating (wild oat; [2]) | Plant response rating, Wild oats (wild oat; [5]) | Cocklebur plant response rating (cocklebur; [1]) | Cocklebur plant response rating (cocklebur; [2]) | Plant response rating, Cocklebur (cocklebur; [5]) | Cocklebur plant response rating (cocklebur; [6]) | Cocklebur plant response rating (cocklebur; [8]) | Redroot pigweed plant response rating (pigweed; [1]) | Corn plant response rating (corn; [1]) | Corn plant response rating (corn; [2]) | Nutsedge plant response rating (purple nutsedge; [2]) | Plant response rating, Nutsedge (purple nutsedge; [5]) | Plant response rating, Soybean (soybean; [5]) | Soybean plant response rating (soybean; [6]) | Plant response rating, Sugarbeets (sugar beet; [5]) | Morningglory plant response rating (morningglory; [1]) | Plant response rating, Morningglory (morningglory; [5]) | Morningglory plant response rating (morningglory; [6]) | Velvetleaf plant response rating (velvetleaf; [1]) | Velvetleaf plant response rating (velvetleaf; [2]) | Plant response rating, Velvetleaf (velvetleaf; [5])
7: Crabgrass plant response rating (crabgrass; [1]) | Plant response rating, Rape (rape; [4]) | Wild oats plant response rating (wild oat; [6]) | Plant response rating, Blackgrass (blackgrass; [4]) | B. signalgrass plant response rating (surinam grass; Postemergence, Rate 250 g/ha, scale 0 to 10, 0 no effect, 10 complete control) | Plant response rating, B. signalgrass (surinam grass; [4])
2: Plant response rating, Bedstraw (bedstraw; [5]) | Rape plant response rating (rape; [1]) | Rape plant response rating (rape; [2]) | Cocklebur plant response rating (cocklebur; [3]) | Corn plant response rating (corn; [6]) | Plant response rating, Nutsedge (purple nutsedge; [4]) | Wheat plant response rating (wheat; [1]) | Velvetleaf plant response rating (velvetleaf; [6]) | B. signalgrass plant response rating (surinam grass; [1])
5: Plant response rating, Cocklebur (cocklebur; [4]) | Plant response rating, Redroot pigweed (pigweed; [4]) | Plant response rating, Blackgrass (blackgrass; [5]) | Blackgrass plant response rating (blackgrass; [6]) | Plant response rating, Soybean (soybean; [4]) | Sugarbeets plant response rating (sugar beet; [1]) | Sugarbeets plant response rating (sugar beet; [2]) | Morningglory plant response rating (morningglory; [7]) | Velvetleaf plant response rating (velvetleaf; [7])
